From patent publication US11214803B2, “Modulators of YAP1 expression” (Ionis Pharmaceuticals, Inc., priority 2019, dated 2022)
Strand notation (5' to 3'): a small letter for the sugar, then the base; units joined by * are phosphorothioate-linked, units joined directly phosphodiester-linked; [ ] holds rarer units or linkages, { } end groups; capitals alone tell only the bases. k = constrained ethyl (cEt); [5mC] = 5-methylcytosine; d = 2'-deoxy (DNA)

System: Yap1 mRNA
Experiment: Dose-dependent inhibition of human Yap1 in A-431 cells (Example 8, 10,000 cells per well, RTS4814)
Assay type: cell-based
Settings: free uptake, approximately 48 hours, RTS4814; for Yap1 mRNA, % UTC: A-431 cells, 10,000 cells per well; for IC50: A-431 cells, linear regression on log/linear plot
Protocol: Modified oligonucleotides described in the studies above were tested at various doses in A-431 cells. Cultured A-431 cells at a density of 10,000 cells per well were treated using free uptake with modified oligonucleotides diluted to concentrations described in the tables below. After approximately 48 hours, Yap1 mRNA levels were measured as previously described using the Human Yap1 primer-probe set RTS4814. Yap1 mRNA levels were normalized to total RNA content, as measured by RIBOGREEN®. Results are presented in the tables below as percent control of the amount of Yap1 mRNA relative to untreated control cells (% UTC). IC50s were calculated using a linear regression on a log/linear plot of the data in excel.

| Substance | Yap1 mRNA, % UTC (31.3 nM) | Yap1 mRNA, % UTC (125.0 nM) | Yap1 mRNA, % UTC (500.0 nM) | Yap1 mRNA, % UTC (2000.00 nM) | IC50 |
| --- | --- | --- | --- | --- | --- |
| 1076288 (k[5mC]*kT*kT*dA*dT*dT*dT*dA*dG*d[5mC]*dA*dT*dA*kG*kT*kG; antisense) [compound 1076288] | 31 % UTC | 7 % UTC | 3 % UTC | 4 % UTC | < 20 nM |
| 1076256 (kT*kT*kA*dT*dT*dT*dA*dG*dG*d[5mC]*d[5mC]*d[5mC]*d[5mC]*kA*kT*kA; antisense) [compound 1076256] | 68 % UTC | 33 % UTC | 11 % UTC | 6 % UTC | 100 nM |
| 1076298 (kG*kT*kT*dA*dT*dA*dA*dA*dG*dA*d[5mC]*d[5mC]*d[5mC]*kA*kA*kT; antisense) [compound 1076298] | 92 % UTC | 58 % UTC | 29 % UTC | 18 % UTC | 200 nM |
| 1074537 (k[5mC]*kA*kG*dT*dA*dA*dT*dA*dG*d[5mC]*dT*d[5mC]*dT*kT*kT*k[5mC]; antisense) [compound 1074537] | 47 % UTC | 21 % UTC | 6 % UTC | 4 % UTC | < 20 nM |
| 1075138 (kA*kA*kT*dA*dA*dT*dA*dG*dA*dT*dA*d[5mC]*dT*kG*k[5mC]*k[5mC]; antisense) [compound 1075138] | 66 % UTC | 27 % UTC | 8 % UTC | 5 % UTC | 50 nM |
| 1075137 (kG*kA*kT*dT*dA*dA*dA*dT*dA*d[5mC]*dT*dG*dA*k[5mC]*k[5mC]*kA; antisense) [compound 1075137] | 70 % UTC | 22 % UTC | 8 % UTC | 4 % UTC | 100 nM |
| 1075143 (k[5mC]*k[5mC]*kT*dT*dA*dT*dT*dA*dG*dT*d[5mC]*dA*dG*kT*kT*k[5mC]; antisense) [compound 1075143] | 59 % UTC | 21 % UTC | 5 % UTC | 3 % UTC | < 20 nM |
| 1076523 (kA*kT*kT*dT*dA*dT*dA*dT*d[5mC]*dA*dG*dG*dT*k[5mC]*kA*kA; antisense) [compound 1076523] | 67 % UTC | 38 % UTC | 18 % UTC | 7 % UTC | 100 nM |
| 1076388 (antisense kG*kA*kA*dA*dT*dA*dT*dT*d[5mC]*dG*dA*dG*dA*kA*kG*kA) [compound 1076388] | 87 % UTC | 40 % UTC | 13 % UTC | 6 % UTC | 100 nM |
| 1075207 (k[5mC]*kT*kA*dT*dT*dA*dA*dA*dT*dG*dA*dG*d[5mC]*kA*k[5mC]*k[5mC]; antisense) [compound 1075207] | 82 % UTC | 51 % UTC | 17 % UTC | 7 % UTC | 100 nM |
| 1076393 (antisense k[5mC]*kT*kT*dT*dA*d[5mC]*dT*dT*dA*d[5mC]*dT*dG*dG*kT*kG*kG) [compound 1076393] | 54 % UTC | 20 % UTC | 8 % UTC | 5 % UTC | < 20 nM |
| 1075233 (kG*kT*kA*dA*dT*dT*dT*dA*dT*d[5mC]*dA*dG*d[5mC]*k[5mC]*kA*kT; antisense) [compound 1075233] | 45 % UTC | 12 % UTC | 5 % UTC | 3 % UTC | < 20 nM |
| 1076456 (k[5mC]*kT*kT*dT*dA*dA*dA*dG*dT*dG*dT*dA*dT*kG*kT*k[5mC]) [compound 1076456] | 43 % UTC | 14 % UTC | 5 % UTC | 3 % UTC | < 20 nM |
| 1076004 (kT*kA*kA*dT*dT*dT*dA*dA*dT*dG*dG*d[5mC]*dT*kT*kG*k[5mC]; antisense) [compound 1076004] | 27 % UTC | 7 % UTC | 3 % UTC | 2 % UTC | < 20 nM |
| 1076064 (kT*kA*kT*dG*dA*dA*d[5mC]*dA*dA*dT*dG*dT*dA*k[5mC]*kT*k[5mC]; antisense) [compound 1076064] | 68 % UTC | 26 % UTC | 10 % UTC | 5 % UTC | 100 nM |
| 1074564 (DNA k[5mC]*kT*kG*dA*dA*dT*dT*d[5mC]*d[5mC]*dA*dA*dT*d[5mC]*kG*kA*kG) [compound 1074564] | 40 % UTC | 14 % UTC | 7 % UTC | 4 % UTC | < 20 nM |
| 1075968 (kT*kA*kT*dT*dT*dA*dA*dG*d[5mC]*d[5mC]*dA*dA*dA*k[5mC]*k[5mC]*kG; antisense) [compound 1075968] | 74 % UTC | 37 % UTC | 11 % UTC | 5 % UTC | 100 nM |
| 1074594 (DNA kT*kA*kG*dG*dA*dG*d[5mC]*dA*dA*dG*dT*d[5mC]*dT*kT*kG*kT) [compound 1074594] | 53 % UTC | 23 % UTC | 10 % UTC | 5 % UTC | < 20 nM |
| 1074629 (DNA kG*kA*kG*dA*dT*dT*dT*dT*dA*dT*dG*d[5mC]*d[5mC]*kT*kG*kT; antisense) [compound 1074629] | 21 % UTC | 5 % UTC | 3 % UTC | 3 % UTC | < 20 nM |
| 1075041 (antisense kG*kA*kT*dT*dA*dT*dA*dA*dA*dG*dA*dG*dG*k[5mC]*kT*k[5mC]) [compound 1075041] | 62 % UTC | 31 % UTC | 11 % UTC | 7 % UTC | 50 nM |
| 1075810 (kG*kT*kA*dG*d[5mC]*dA*dA*dT*dA*dG*dA*dG*dT*kA*kA*k[5mC]; antisense) [compound 1075810] | 67 % UTC | 28 % UTC | 12 % UTC | 7 % UTC | 100 nM |
| 1076295 (kG*kT*kA*dT*dA*dT*dT*dA*dG*dT*dG*d[5mC]*d[5mC]*k[5mC]*k[5mC]*k[5mC]; antisense) [compound 1076295] | 55 % UTC | 17 % UTC | 5 % UTC | 3 % UTC | < 20 nM |
| 1075939 (antisense k[5mC]*kT*kT*dG*dA*dA*dT*dA*dT*dA*dT*dG*dG*kG*kT*kT) [compound 1075939] | 46 % UTC | 19 % UTC | 10 % UTC | 8 % UTC | < 20 nM |
| 1074535 (kG*kT*kA*dA*dT*dA*dG*d[5mC]*dT*d[5mC]*dT*dT*dT*k[5mC]*kT*kA; antisense) [compound 1074535] | 57 % UTC | 21 % UTC | 7 % UTC | 5 % UTC | < 20 nM |
| 1075115 (kG*kT*kA*dT*dA*dG*d[5mC]*d[5mC]*dT*dT*dA*dT*dT*k[5mC]*kT*kT; antisense) [compound 1075115] | 57 % UTC | 41 % UTC | 17 % UTC | 9 % UTC | 100 nM |
| 1074250 (antisense k[5mC]*kT*kG*dA*dT*d[5mC]*dG*dA*dT*dG*dT*dG*dA*kT*kT*kT) [compound 1074250] | 67 % UTC | 35 % UTC | 15 % UTC | 9 % UTC | 100 nM |
| 1075816 (kT*kA*kG*dT*dA*dT*dA*dA*dA*dG*d[5mC]*dA*dG*kG*kG*k[5mC]; antisense) [compound 1075816] | 66 % UTC | 29 % UTC | 12 % UTC | 8 % UTC | 100 nM |
| 1074758 (k[5mC]*kA*kG*dT*dT*dA*dA*dG*d[5mC]*dA*d[5mC]*dT*dT*kT*kT*kA; antisense) [compound 1074758] | 74 % UTC | 23 % UTC | 8 % UTC | 5 % UTC | 100 nM |
| 1076330 (antisense kG*kA*kA*dT*dT*dA*dT*dA*d[5mC]*dT*dG*dG*d[5mC]*kT*kA*k[5mC]) [compound 1076330] | 57 % UTC | 31 % UTC | 9 % UTC | 4 % UTC | 40 nM |
| 1076549 (kG*kT*kG*d[5mC]*dA*dA*dA*dA*dT*dA*d[5mC]*d[5mC]*dT*kT*kT*kG; antisense) [compound 1076549] | 53 % UTC | 24 % UTC | 10 % UTC | 6 % UTC | < 20 nM |
